We go through four molecules from ChEMBL document CHEMBL1155624, “Steroidal glycosides from the aerial parts of Polianthes tuberosa” (J Nat Prod, 2000).

≈ marks a conversion by molar mass, not a printed value.

The subject of this assay is HL-60. Put plainly: Cytotoxicity against human HL60 cells by MTT reduction assay. It counts as functional, cell-based. (Tetrazolium assays rely on reduction of a dye to a coloured formazan, in cell work by metabolically active cells.)

Turning to `CC1CC[C@@]2(OC1)O[C@H]1C[C@H]3[C@@H]4C[C@H](O)[C@H]5C[C@@H](O[C@@H]6O[C@H](CO)[C@H](O[C@@H]7O[C@H](CO)[C@@H](O)[C@H](O[C@@H]8OC[C@@H](O)[C@H](O)[C@H]8O)[C@H]7O[C@@H]7O[C@H](CO)[C@@H](O)[C@H](O[C@@H]8OC[C@@H](O)[C@H](O)[C@H]8O)[C@H]7O)[C@H](O)[C@H]6O)CC[C@]5(C)[C@H]4CC[C@]3(C)[C@H]1[C@@H]2C` (some centres undefined), it took 2.6 µg/mL (≈ 2.2 µM) to reach half-maximal inhibition (IC50).

Take `CC1CC[C@@]2(OC1)O[C@H]1C[C@H]3[C@@H]4CC[C@H]5C[C@@H](O[C@@H]6O[C@H](CO)[C@H](O[C@@H]7O[C@H](CO)[C@@H](O)[C@H](O[C@@H]8OC[C@@H](O)[C@H](O)[C@H]8O)[C@H]7O[C@@H]7O[C@H](CO)[C@@H](O)[C@H](O[C@@H]8OC[C@@H](O)[C@H](O)[C@H]8O)[C@H]7O)[C@H](O)[C@H]6O)CC[C@]5(C)C4=CC(=O)[C@]3(C)[C@H]1[C@@H]2C` (some centres undefined): it took 6.1 µg/mL (≈ 5.17 µM) to reach half-maximal inhibition (IC50). This IC50 is about 2.3-fold higher than that of the molecule before.

Take `CC1CC[C@@]2(OC1)O[C@H]1C[C@H]3[C@@H]4CC[C@H]5C[C@@H](O[C@@H]6O[C@H](CO)[C@H](O[C@@H]7O[C@H](CO)[C@@H](O)[C@H](O[C@@H]8OC[C@@H](O)[C@H](O)[C@H]8O)[C@H]7O[C@@H]7O[C@H](CO)[C@@H](O)[C@H](O[C@@H]8OC[C@@H](O)[C@H](O)[C@H]8O)[C@H]7O)[C@H](O)[C@H]6O)CC[C@]5(C)[C@H]4CC(=O)[C@]3(C)[C@H]1[C@@H]2C` (some centres undefined): it took 3.2 µg/mL (≈ 2.71 µM) to reach half-maximal inhibition (IC50).

For the molecule `CC(C)CC[C@H](O)[C@@H](C)[C@H]1[C@@H](O[C@@H]2OC[C@](O)(CO)[C@H]2O)C[C@H]2[C@@H]3CC=C4C[C@@H](O)C[C@@H](O[C@@H]5O[C@H](CO)[C@@H](O)[C@H](O)[C@H]5O)[C@]4(C)[C@H]3CC[C@]12C`, the IC50 (usually the concentration at which inhibition is half-maximal) was greater than 10 µg/mL.
